Data reported in patent publication US4647408A, “Carbapenem-type antibiotics” (Shionogi & Co., Ltd., priority 1983, dated 1987).
≈ marks a conversion by molar mass, not a printed value.

Legend:
[1] = target: T1, β-lactamase (cephalosporinase type) of Enterobacter cloacae 92 (Enterobacter cloacae, UniProt P05364); assay: β-lactamase inhibitory activity, inhibition of hydrolysis of the substrate; type: biochemical; conditions: β-lactamase of Enterobacter cloacae 92, cephalosporinase type; pH 7.0, 10 min preincubation, read after 20 min
T1 construct: supernatant of sonicated, washed cells of the producing strain (crude cell-free extract)
From the text: (§1) (2) Test on the β-lactamase inhibitory activity:
(§2) The β-lactamase inhibitory activity is expressed as a minimum concentration (μg/ml) of the test compound which is required to inhibit the hydrolysis of the substrate by β-lactamase. The supernatant, which has been obtained by means of breaking the washed cells of the β-lactamase-producing microorganisms in a buffer with ultrasonic waves and then centrifuging the consequent cell-free extract, is employed as a standard β-lactamase.
(§3) A test compound is successively diluted with a buffer (pH 7.0) by a two-fold dilution method, the standard β-lactamase in added to each of the diluted solutions, then the mixture is allowed to stand for 10 minutes, and an indicator is added therein. The minimum inhibitory concentration at which no color is developed after observation for 20 minutes, is determined.
*^1 Producing cephalosporinasetype lactamase

[2] = tested on: Staphylococcus aureus 209P JC-1; assay: Antimicrobial activity, agar dilution method; type: cell-based; conditions: inoculum 10^6 cells/ml, sensitivity disc agar, 37° C. overnight, read-out: Minimum Inhibitory Concentration
Procedure: (§4) (1) Antimicrobial Activity:
(§5) Test microorganism Concentration (μg/ml)
(§6) Determined by agar dilution method: Inoculum size 10^6 cells/ml,
(§7) Cultivation on a sensitivitydisc agar medium at 37° C. overnight.

Klebsiella sp. 363(R) = assay: Antimicrobial activity, agar dilution method; type: cell-based; conditions: inoculum 10^6 cells/ml, sensitivity disc agar, 37° C. overnight, read-out: Minimum Inhibitory Concentration
Procedure: as §4, §5, §6, §7

[3] = tested on: Streptococcus pneumoniae I; assay: Antimicrobial activity, agar dilution method; type: cell-based; conditions: inoculum 10^6 cells/ml, sensitivity disc agar, 37° C. overnight, read-out: Minimum Inhibitory Concentration
Procedure: as §4, §5, §6, §7

Proteus mirabilis PR-4 = assay: Antimicrobial activity, agar dilution method; type: cell-based; conditions: PR4, inoculum 10^6 cells/ml, sensitivity disc agar, 37° C. overnight, read-out: Minimum Inhibitory Concentration
Procedure: as §4, §5, §6, §7

[4] = tested on: Klebsiella pneumoniae SRL-1; assay: Antimicrobial activity, agar dilution method; type: cell-based; conditions: SRL1, inoculum 10^6 cells/ml, sensitivity disc agar, 37° C. overnight, read-out: Minimum Inhibitory Concentration
Procedure: as §4, §5, §6, §7

[5] = tested on: Escherichia coli NIHJ JC-2; assay: Antimicrobial activity, agar dilution method; type: cell-based; conditions: NIHJJC2, inoculum 10^6 cells/ml, sensitivity disc agar, 37° C. overnight, read-out: Minimum Inhibitory Concentration
Procedure: as §4, §5, §6, §7

Enterobacter cloacae 233 = assay: Antimicrobial activity, agar dilution method; type: cell-based; conditions: inoculum 10^6 cells/ml, sensitivity disc agar, 37° C. overnight, read-out: Minimum Inhibitory Concentration
Procedure: as §4, §5, §6, §7

[6] = tested on: Pseudomonas aeruginosa ATCC 25619; assay: Antimicrobial activity, agar dilution method; type: cell-based; conditions: ATCC25619, inoculum 10^6 cells/ml, sensitivity disc agar, 37° C. overnight, read-out: Minimum Inhibitory Concentration
Procedure: as §4, §5, §6, §7

[7] = tested on: Gram-positive and Gram-negative microorganisms; assay: Antimicrobial activity (general statement); type: cell-based; conditions: statement in words
From the text: (§8) Results of the tests on the antimicrobial activities and β-lactamase inhibitory activities are summarized as follows.

[8] = tested on: β-lactamase (penicillinase type) of Klebsiella sp. 363; assay: β-lactamase inhibitory activity, inhibition of hydrolysis of the substrate; type: biochemical; conditions: β-lactamase of Klebsiella sp. 363, penicillinase type; pH 7.0, 10 min preincubation, read after 20 min
From the text: as §1, §2, §3
*^2 Producing penicillinasetype lactamase

β-lactamase = β-lactamase inhibitory activity (general statement); type: biochemical; conditions: statement in words
From the text: as §8, §2, §3

T1 sequence (P05364 21-381): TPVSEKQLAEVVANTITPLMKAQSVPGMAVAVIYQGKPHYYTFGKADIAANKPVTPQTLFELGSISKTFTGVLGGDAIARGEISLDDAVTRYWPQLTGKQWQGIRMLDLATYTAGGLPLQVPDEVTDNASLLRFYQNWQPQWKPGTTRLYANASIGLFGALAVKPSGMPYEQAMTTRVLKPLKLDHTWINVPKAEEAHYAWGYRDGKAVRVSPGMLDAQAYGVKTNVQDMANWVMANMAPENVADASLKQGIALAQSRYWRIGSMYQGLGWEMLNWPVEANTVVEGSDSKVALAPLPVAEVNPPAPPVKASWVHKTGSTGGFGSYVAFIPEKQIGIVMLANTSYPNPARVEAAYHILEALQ

| Compound | Minimum Inhibitory Concentration (inhibition of substrate hydrolysis by β-lactamase) [1] [µg/mL] | MIC [2] [µg/mL] | MIC (Klebsiella sp. 363(R)) [µg/mL] | MIC [3] [µg/mL] | MIC (Proteus mirabilis PR-4) [µg/mL] | MIC [4] [µg/mL] | MIC [5] [µg/mL] | MIC (Enterobacter cloacae 233) [µg/mL] | MIC [6] [µg/mL] | antimicrobial activities [7] | Minimum Inhibitory Concentration (inhibition of substrate hydrolysis by β-lactamase) [8] [µg/mL] | β-lactamase inhibitory activities (β-lactamase) |
| --- | --- | --- | --- | --- | --- | --- | --- | --- | --- | --- | --- | --- |
| C[C@H](OS(=O)(=O)O)[C@@H]1C(=O)N2C(C(=O)O)=C(S(=O)O)C[C@H]12 [PA-41746-A2] | 0.008 | 12.5 (≈ 36.6 µM) | 1.56 (≈ 4.57 µM) | 1.56 (≈ 4.57 µM) | 3.13 (≈ 9.17 µM) | 1.56 (≈ 4.57 µM) | 1.56 (≈ 4.57 µM) | 6.25 (≈ 18.3 µM) | > 100 | antimicrobial activities against Gram-positive and Gram-negative microorganisms | 1.0 | excellent β-lactamase inhibitory activities |
| C[C@H](OS(=O)(=O)O)[C@@H]1C(=O)N2C(C(=O)O)=C([S@+]([O-])CCO)C[C@H]12 [PA-41746-E] | 0.016 | – | – | – | – | – | – | – | – | antimicrobial activities against Gram-positive and Gram-negative microorganisms | 0.008 | excellent β-lactamase inhibitory activities |
| CC(=O)NCC[S@@+]([O-])C1=C(C(=O)O)N2C(=O)[C@@H]([C@H](C)OS(=O)(=O)O)[C@H]2C1 [PA-41746-F] | 0.002 | – | – | – | – | – | – | – | – | antimicrobial activities against Gram-positive and Gram-negative microorganisms | 0.002 | excellent β-lactamase inhibitory activities |
